According to patent US20240116946A1 (Gilead Sciences, Inc., priority 2022, published 2024):
Where two headings read alike, the source gives them in different places.

Tests used:
SARS-CoV-2-NLuc = assay: microbe, parasite or virus in culture; format: cell-based, SARS Coronavirus 2
[1] = target: recombinant SARS-CoV-2 Main protease (Mpro) (Severe acute respiratory syndrome coronavirus 2 (2019-nCoV) (SARS-CoV-2), UniProt P0DTD1); assay: Cov Mpro Biochemical IC50 Assay; conditions: read-out: MPro IC50
[2] = Severe acute respiratory syndrome coronavirus, 48 h, read-out: MPro EC50
[3] = recombinant SARS-CoV-2 Mpro 7.5 nM, fluorogenic peptide substrate 40 μM
[4] = recombinant SARS-CoV-2 Mpro, fluorogenic peptide substrate
[5] = Severe acute respiratory syndrome coronavirus, 48 h; read-out: MPro EC50

| SMILES | EC50 (SARS-CoV-2-NLuc; [2]) [µM] | IC50 [1, 3] [µM] | IC50 [1, 4] [µM] | EC50 (SARS-CoV-2-NLuc; [5]) [µM] | EC50 (SARS-CoV-2-NLuc; read-out: MPro EC50) [µM] |
| --- | --- | --- | --- | --- | --- |
| COc1cc(-c2cc3[nH]c(=O)n(-c4cncc5c(CO)nn(C)c45)c(=O)c3s2)c(Cl)cc1F [Example 699] | 0.47 | 0.0106 | – | – | – |
| COc1ccc(Cl)c(-c2cc3[nH]c(=O)n(-c4cncc5sc(C(C)(C)O)c(C)c45)c(=O)c3s2)c1 [Example 516] | 0.00787 | 0.00527 | – | – | – |
| CCOc1ccc(Cl)c(-c2cc3[nH]c(=O)n(-c4cncc5ccccc45)c(=O)c3s2)c1 [Example 345] | 0.0618 | – | 0.0147 | – | – |
| COc1cc(-c2cc3[nH]c(=O)n(-c4cncc5cnn(C6CC6)c45)c(=O)c3s2)c(Cl)cc1F [Example 975, 6-(2-chloro-4-fluoro-5-methoxy-phenyl)-3-(1-cyclopropylpyrazolo[4,3-c]pyridin-7-yl)-1H-thieno[3,2-d]pyrimidine-2,4-dione] | 0.0103 | 0.00633 | – | – | – |
| O=c1[nH]c2cc(-c3cccc4cccnc34)ccc2c(=O)n1-c1cncc2ccccc12 [Example 40] | – | – | 1.31 | 4.91 | – |
| COCCn1cc2cncc(-n3c(=O)[nH]c4cc(-c5cc(OC)c(F)cc5Cl)sc4c3=O)c2n1 [Example 735] | 0.0711 | 0.00665 | – | – | – |
| Cc1ccc(-c2cc3[nH]c(=O)n(-c4cncc5cnn(C)c45)c(=O)c3s2)c(C#N)c1 [Example 841] | 0.523 | 0.134 | – | – | – |
| COc1cc(-c2cc3c(s2)c(=O)n(-c2cnnc(C)c2)c(=O)n3CCC#N)c(Cl)cc1F [Example 988] | 0.259 | 0.0634 | – | – | – |
| O=c1[nH]c2cc(-c3ccccc3OCc3ccccc3Cl)ccc2c(=O)n1-c1cncc2ccccc12 [Example 55] | 1.83 | – | 12.8 | – | – |
| COc1cc(-c2cc3c(s2)c(=O)n(-c2cncc4cccc(F)c24)c(=O)n3CCC#N)c(Cl)cc1F [Example 901, 3-(6-(2-chloro-4-fluoro-5-methoxyphenyl)-3-(5-fluoroisoquinolin-4-yl)-2,4-dioxo-3,4-dihydrothieno[3,2-d]pyrimidin-1(2H)-yl)propanenitrile] | 0.00516 | 0.00253 | – | – | – |
| Cn1ncc2cncc(-n3c(=O)c4sc(-c5ccccc5Cl)cc4n(CCC#N)c3=O)c21 [Example 781] | 0.00481 | 0.00506 | – | – | – |
| O=c1[nH]c2cc(-c3ccccc3Cl)sc2c(=O)n1-c1cnccc1N1CCN(C2COC2)CC1 [Example 117, 6-(2-chlorophenyl)-3-(4-(4-(oxetan-3-yl)piperazin-1-yl)pyridin-3-yl)thieno[3,2-d]pyrimidine-2,4(1H,3H)-dione] | – | – | 0.156 | 0.627 | – |
| COc1cc(-c2cc3[nH]c(=O)n(-c4cnnc5ccccc45)c(=O)c3s2)c(Cl)cc1F [Example 745] | – | 0.092 | – | 0.257 | – |
| O=c1c2sc(-c3ccccc3Cl)cc2n(Cc2ccncc2)c(=O)n1-c1cncc2ccccc12 [Example 157] | 0.204 | – | 0.164 | – | – |
| N#CCn1c(=O)n(-c2cncc3cccnc23)c(=O)c2sc(-c3ccccc3Cl)cc21 [Example 710] | 0.0226 | < 0.00433 | – | – | – |
| COc1ccc(C#N)c(-c2ccc3c(=O)n(-c4cncc5ccccc45)c(=O)[nH]c3c2)c1 [Example 308, 2-[3-(4-isoquinolyl)-2,4-dioxo-1H-quinazolin-7-yl]-4-methoxy-benzonitrile] | 0.0312 | – | 0.0162 | – | – |
| COCCOCCOc1c(C)cncc1-n1c(=O)[nH]c2cc(-c3ccccc3Cl)sc2c1=O [Example 215] | 0.0941 | – | 0.0107 | – | – |
| O=c1[nH]c2cc(-c3cccnc3)ccc2c(=O)n1-c1cncc2ccccc12 [Example 43] | > 50 | – | 3.12 | – | – |
| CCCOc1ccc(Cl)c(-c2ccc3c(=O)n(-c4cncc5ccccc45)c(=O)[nH]c3c2)c1 [Example 249] | 0.11 | – | 0.269 | – | – |
| O=c1[nH]c2cc(-c3ccccc3OCc3ccccc3)sc2c(=O)n1-c1cncc2ccccc12 [Example 18] | 0.208 | – | 2.93 | – | – |
| COc1cc(-c2cc3c(s2)c(=O)n(-c2cncc4ccncc24)c(=O)n3CCC#N)c(Cl)cc1F (single isomer, unassigned) [Example 1098, 3-[6-(2-chloro-4-fluoro-5-methoxy-phenyl)-3-(2,6-naphthyridin-4-yl)-2,4-dioxo-thieno[3,2-d]pyrimidin-1-yl]propanenitrile] | – | 0.00381 | – | – | 0.00191 |
| COc1cc(-c2cc3c(s2)c(=O)n(-c2cncc4nnn(C(C)C)c24)c(=O)n3CCC#N)c(Cl)cc1F [Example 991] | 0.0498 | 0.016 | – | – | – |
| COc1cc(-c2cc3c(=O)n(-c4cncc5ccccc45)c(=O)n(CCC#N)c3s2)c(Cl)cc1F [Example 867] | 0.0131 | 0.00982 | – | – | – |
